Patent US20060154243A1 (priority 2003, published 2006)

Tests used:
Format in all cases: binding, human
serum SARS-green = tested on: serum SARS-green
serum 62 (individual 62) = tested on: serum 62 (individual 62)
serum SARS-yellow = tested on: serum SARS-yellow
[1] = tested on: serum 1a (individual 1, early serum)
serum London = tested on: serum London
[2] = tested on: control serum Blood-bank (commercial negative donor pooled serum)
serum 2 (individual 2) = tested on: serum 2 (individual 2)
[3] = tested on: control serum LUMC (pooled serum of ten healthy hospital workers)
serum 6 (individual 6) = tested on: serum 6 (individual 6)
serum 37 (individual 37) = tested on: serum 37 (individual 37)
[4] = tested on: serum 1b (individual 1, late serum)

Sequence | Binding of serum SARS-green to linear peptides of Orf14 of SARS-CoV TOR2 (serum SARS-green) | Binding of serum 62 to linear peptides of Orf14 of SARS-CoV TOR2 (serum 62 (individual 62)) | Binding of serum SARS-yellow to linear peptides of Orf14 of SARS-CoV TOR2 (serum SARS-yellow) | Binding of serum 1a to linear peptides of Orf14 of SARS-CoV TOR2 [1] | Binding of serum London to linear peptides of Orf14 of SARS-CoV TOR2 (serum London) | Control Serum Blood-Bank Looped peptides [2] | Control serum Blood-bank linear peptides [2] | Binding of serum 2 to linear peptides of Orf14 of SARS-CoV TOR2 (serum 2 (individual 2)) | Control serum LUMC linear peptides [3] | Control serum LUMC looped peptides [3] | Binding of serum 6 to linear peptides of Orf14 of SARS-CoV TOR2 (serum 6 (individual 6)) | Binding of serum 37 to linear peptides of Orf14 of SARS-CoV TOR2 (serum 37 (individual 37)) | Binding of serum 1b to linear peptides of Orf14 of SARS-CoV TOR2 [4]
EIQLLAAVGEILLLE | 0.3 | 0.4 | 0.5 | 0.6 | 0.4 | 0.7 | 0.4 | 0.5 | 0.8 | 0.7 | 0.4 | 0.6 | 0.5
PHHVVAVIQEIQLLA | 0.2 | 0.3 | 0.4 | 0.4 | 0.3 | 0.5 | 0.4 | 0.4 | 0.5 | 0.6 | 0.4 | 0.5 | 0.3
VGEILLLEWLAEVVK | 0.2 | 0.4 | 0.4 | 0.5 | 0.5 | 0.7 | 0.5 | 0.4 | 0.6 | 0.8 | 0.5 | 0.6 | 0.4
LAAVGEILLLEWLAE | 0.5 | 0.5 | 0.6 | 0.6 | 0.6 | 0.7 | 0.4 | 0.5 | 0.6 | 0.7 | 0.5 | 0.7 | 0.5
LEWLAEVVKLPSRYC | 0.1 | 0.4 | 0.2 | 0.6 | 0.5 | 0.8 | 0.4 | 0.4 | 0.4 | 0.7 | 0.4 | 0.7 | 0.3
LLLEWLAEVVKLPSR | 0.3 | 0.4 | 0.2 | 0.5 | 0.6 | 0.7 | 0.7 | 0.4 | 0.5 | 0.5 | 0.6 | 0.7 | 0.4
QREAEAAVKPLLAPH | 0.3 | 0.3 | 0.2 | 0.4 | 0.4 | 0.7 | 0.4 | 0.4 | 0.4 | 0.7 | 0.5 | 0.4 | 0.3
VIQEIQLLAAVGEIL | 0.5 | 0.4 | 0.3 | 0.5 | 0.4 | 0.5 | 0.4 | 0.4 | 0.6 | 0.9 | 0.3 | 0.6 | 0.4
EWLAEVVKLPSRYCC | 0.6 | 0.7 | 0.3 | 0.8 | 1.0 | 0.7 | 0.7 | 0.7 | 0.6 | 0.6 | 0.6 | 1.0 | 0.6
IQEIQLLAAVGEILL | 0.3 | 0.4 | 0.4 | 0.5 | 0.3 | 0.6 | 0.4 | 0.4 | 0.6 | 0.5 | 0.4 | 0.7 | 0.4
LLEWLAEVVKLPSRY | 0.1 | 0.4 | 0.3 | 0.5 | 0.4 | 0.6 | 0.5 | 0.3 | 0.4 | 0.6 | 0.5 | 0.5 | 0.4
